Results from ChEMBL document CHEMBL2407091, “Effect of the orthoquinone moiety in 9,10-phenanthrenequinone on its ability to induce apoptosis in HCT-116 and HL-60 cells” (2013).
The source made the active and inactive calls. The calls are words filed in the database; no cut-off is given here.

Experiments:
[1] = system: HL-60; assay: Induction of apoptosis in human HL60 cells assessed as DNA fragmentation at 10 uM after 6 hrs by electrophoretic analysis; assay type: functional, cell-based
[2] = system: HL-60; assay: Induction of apoptosis in human HL60 cells assessed as caspase-3 activation at 10 uM after 4 hrs by FACS flow cytometric analysis; assay type: functional, cell-based
[3] = system: HL-60; assay: Cytotoxicity against human HL60 cells after 24 hrs by WST-1 assay; assay type: functional; details: HL-60, 24 h, read-out: LC50 (the source's name)
[4] = system: HCT-116; assay: Cytotoxicity against human HCT116 cells after 24 hrs by MTT assay; assay type: functional; details: HCT-116, 24 h, read-out: LC50 (the source's name)
[5] = system: HL-60; assay: Cytotoxicity against human HL60 cells at 5 uM after 24 hrs by WST-1 assay; assay type: functional, cell-based
[6] = system: HCT-116; assay: Cytotoxicity against human HCT116 cells at >2.5 uM after 24 hrs by MTT assay; assay type: functional, cell-based

SMILES: O=C1C(=O)c2cccnc2-c2ncccc21
- Activity [1]: Active
- Activity [2]: Active
- CC50 [3]: 1.57 µM
- CC50 [4]: 0.73 µM

SMILES: Oc1cc2ccccc2c2ccccc12
- CC50 [3]: > 10 µM
- CC50 [4]: > 10 µM

SMILES: O=c1c(=O)c2cccc3ccc4cccc1c4c32
- Activity [1]: Active
- Activity [2]: Active
- CC50 [3]: 3.41 µM
- CC50 [4]: 0.86 µM

SMILES: O=c1[nH]c2ccccc2c2ccccc12
- CC50 [3]: > 10 µM
- CC50 [4]: > 10 µM

SMILES: O=C1C=Cc2ccccc2C1=O [1,2-NAPHTHOQUINONE]
- CC50 [3]: 7.14 µM
- CC50 [4]: 9.2 µM

SMILES: O=C1C(=O)c2ccccc2-c2ccccc21 [9,10-PHENANTHRENEQUINONE]
- Activity [1]: Active
- Activity [2]: Active
- CC50 [3]: 3.38 µM
- CC50 [4]: 1.43 µM
- Activity [5]: Active
- Activity [6]: Active

SMILES: O=C1C(=O)c2cccc3cccc1c23 [ACENAPHTHOQUINONE]
- CC50 [3]: > 10 µM
- CC50 [4]: > 10 µM

SMILES: O=C(C(=O)c1ccccc1)c1ccccc1 [BENZIL]
- CC50 [3]: > 10 µM
- CC50 [4]: > 10 µM

SMILES: c1ccc2c(c1)CCc1ccccc1-2 [DIHYDROPHENANTHRENE]
- CC50 [3]: > 10 µM
- CC50 [4]: > 10 µM

SMILES: c1ccc2c(c1)ccc1ccccc12 [PHENANTHRENE]
- CC50 [3]: > 10 µM
- CC50 [4]: > 10 µM
